What was measured:
[1] = Drug levels in retrieved capsules, IP lavage and plasma in non-human primates (HPLC, LCMS); assay type: in vivo, cynomolgus macaques
Experimental: LC pumps used are Agilent 1290 Infinity Binary pumps with CTC Pal Autosampler. MS is a Sciex API6500 triple quad. Sample Storage Conditions: −80° C. Sample Processing Extraction Volume: 10 μL. Extraction Method: Protein Precipitation. For example: GW2580 plasma concentration analysis: Sample Extraction Procedure: 1. 10 μL of calibration standards, quality controls, blanks and samples were aliquoted into a 96-well plate. 2. 60 μL of IS-SS (internal standard) (100 ng/mL QNZ, carbutamide, chrysin, carbamazepine, glafenine, dexamethasone, glyburide, and d4AEA in acetonitrile) were added to all samples except for double blanks. 60 μL of acetonitrile was then added to double blanks. 3. The plate was covered and samples mixed, followed by centrifugation for 5 minutes at 3000 rpm at 4° C. 4. 50 μL of supernatant was then transferred into a clean 96-well plate using a liquid handler. 5. Samples were diluted with 100 μL of MilliQ water, and the plate was once again covered and mixed for about a minute prior to sample injection onto the LC-MS/MS at 1.00-2,500 ng/mL. LC Conditions: Waters BEH C18, 50×2.1 mm, 1.7 μm. Run temperature: 50° C. Mobile Phase A, 95:5:0.1 (v:v:v) Water:Acetonitrile:Formic Acid (1.2 min). Mobile Phase B, 50:50:0.1 (v:v:v) Methanol:Acetonitrile:Formic Acid (1.3 min). Flow: 0.8 mL/min. Injection Volume: 2 μL. MS Conditions: MS/MS: API-6500. Ionization Method: Electrospray. Positive/Negative Ion: Positive. Resolution: Unit. Source Temperature (° C.): 550. Transitions (m/z): Compound ID: GW2580 367.0/245.1 Da. Int Std ID: QNZ 357.0/197.1 Da. Data Analysis: Acceptance Criteria ‘±20% (±25% at the LLOQ), Regression Type, Linear (1/(x*x)), Accepted Curve Range 1.00-2,500 ng/mL Carryover 0.00%. HPLC
Calibration curves were obtained on an Agilent LC 1100 Series (Agilent Technologies, CA, USA) equipped with binary pump (G1312 Å), auto-sampler (G1313 Å), degasser and photodiode detector (DAD, G1315 Å). Chemstation was used for system control, data processing and data acquisition for LC. Chromatographic separation was achieved by an analytical Waters Atlantis T3 C18 column (5 μm, 4.6×250 mm). The temperature of column and auto-sampler were kept at 20° C.
Stock solution of GW2580 was prepared in dimethyl sulfoxide (DMSO) at a target concentration of 10 mg/ml and appropriate dilutions were made in DMSO to prepare standards (0.25-2500 μg/ml) for calibration curve of GW2580. 10 μl of standard solution was injected and the analytes were eluted by gradient mode using (A) acetonitrile and (B) 0.1% formic acid in water at a constant flow rate of 1 ml/min. The gradient conditions of mobile phase were as follows: 0 min 10% A, 10 min 95% A, 14 min 95% A, 16 min 10% A, 20 min 10% A.

C57BL/6 mice = assay: PDMS discs loaded with GW2580 crystals implanted SC and IP; assay type: in vivo
Experimental: Another study was done by mixing GW2580 crystals at different ratios of 1, 5 and 10% w/w with PDMS to form disks of 2.2 mm thickness and 5 mm diameter prepared at ratio 9:1 (PDMS: curing reagent) and were solidified overnight at 45° C. These disks were implanted into SC and IP spaces in C57BL/6 mice and then retrieved and analyzed at 2 weeks, 4 weeks, and 3 months post implantation in C57BL/6 mice (1 disc/site/mouse). […] Retrieved materials where fixed overnight using 4% paraformaldehyde at 4° C. After fixation, alginate sphere or retrieved tissue samples were washed using 70% alcohol. The materials where then mixed with 4 degrees calcium-cooled Histogel (VWR, CA #60872-486). After the molds hardened, the blocks were processed for paraffin embedding, sectioning and staining according to standard histological methods. Single-cell suspensions of freshly excised tissues were prepared using a gentle MACS Dissociator (Miltenyi Biotec, Auburn, Calif.) according to the manufacturer's protocol. Single-cell suspensions were prepared in a passive PEB dissociation buffer (1×PBS, pH 7.2, 0.5% BSA, and 2 mM EDTA) and suspensions were passed through 70 μm filters (Cat. #22363548, Fisher Scientific, Pittsburgh, Pa.). This process removed the majority of cells adhered to the surface (>90%). All tissue and material sample-derived, single-cell populations were then subjected to red blood cell lysis with 5 ml of 1×RBC lysis buffer (Cat. #00-4333, eBioscience, San Diego, Calif., USA) for 5 min at 4° C. The reaction was terminated by the addition of 20 ml of sterile 1×PBS. The cells remaining were centrifuged at 300-400 g at 4° C. and resuspended in a minimal volume (˜50 μl) of eBioscience Staining Buffer (cat. #00-4222) for antibody incubation. All samples were then co-stained in the dark for 25 min at 4° C. with two of the fluorescently tagged monoclonal antibodies specific for the cell markers CD68 (1 μl (0.5 μg) per sample; CD68-Alexa647, Clone FA-11, Cat. #11-5931, BioLegend), Ly-6G (Gr-1) (1 μl (0.5 μg) per sample; Ly-6G-Alexa-647, Clone RB6-8C5, Cat. #108418, BioLegend), CD11b (1 μl (0.2 μg) per sample; or CD11b-Alexa-488, Clone M1/70, Cat. #101217, BioLegend). For alpha smooth muscle actin (fibrosis) analysis, additional cell aliquots were also fixed in 1% paraformaldehyde and permeabilized with 0.1% triton X-100 before being stained with Cy3-conjugated anti-mouse αSM actin antibody (1:100) (Sigma Aldrich, St. Louis, Mo.). Two ml of eBioscience Flow Cytometry Staining Buffer (cat. #00-4222, eBioscience) was then added, and the samples were centrifuged at 400-500 g for 5 min at 4° C. Supernatants were removed by aspiration, and this wash step was repeated two more times with staining buffer. Following the third wash, each sample was resuspended in 500 μl of Flow Cytometry Staining Buffer and run through a 40 μm filter (Cat. #22363547, Fisher Scientific) for eventual FACS analysis using a BD FACSCalibur (cat. #342975), BD Biosciences, San Jose, Calif., USA). For proper background and laser intensity settings, unstained, single antibody, and IgG (labeled with either Alexa-488 or Alexa-647, BioLegend) controls were also run. For primate cell staining, anti-human CD68 Alexa Fluor-647-conjugated antibody (Clone KP1, Cat. #sc-20060, Santa Cruz, Dallas, Tex.) was used in conjunction with the above BioLegend (anti-mouse/human) CD11b-AF488 antibody.

SMILES: COc1ccc(COc2ccc(Cc3cnc(N)nc3N)cc2OC)cc1 [GW2580, 5-[[3-Methoxy-4-[(4-methoxyphenyl)methoxy]phenyl]methyl]-2,4-pyrimidinediamine]
- remaining drug extracted from retrieved capsules ([1]; 0.5 mm capsules, IP space, 3 months): little to no drug
- remaining drug extracted from retrieved capsules ([1]; 1.5 mm capsules, IP and SC sites, up to 6 months): additional stores
- plasma drug concentration ([1]; at the termination of the study): below detection limits
- IP space (lavage) drug concentration ([1]; beyond 4 weeks, below detectable limit): < 0.5 ng/mL
- concentration at 4 weeks ([1]; cynomolgus monkey, intraperitoneal space lavage fluid, ip, 4 weeks post-implantation): 2 to 3 ng/mL
- foreign body response (plaque on retrieved PDMS discs) (C57BL/6 mice; 1, 5 and 10% w/w crystals, 2 and 4 weeks, 3 months): reduced in a dose-dependent fashion
- remaining drug levels (% loading, HPLC), SC versus IP (C57BL/6 mice; 2 weeks, 4 weeks, 3 months): release was slower in the SC space
- responding macrophages dissociated from discs (FACS) (C57BL/6 mice; all time points, IP and SC): significantly reduced cell numbers
- immune cell infiltration and fibrosis (H&E and Masson's Trichrome) (C57BL/6 mice; excised SC and IP tissues, versus blank discs): significantly reduced immune cell infiltration and fibrosis
- drug retention, PDMS versus alginate (C57BL/6 mice; same incubation times): drug retention was much higher in polymer PDMS
